# Experimental data reported in patent publication US20250179057A1, “MEK IMMUNE ONCOLOGY INHIBITORS AND THERAPEUTIC USES THEREOF” (Immuneering Corporation, priority 2022, published 2025).
# “And” between values parts separate entries of the source, which are not always exact repeats. Identical values can stand only once.
# Tested on: phospho-ERK in A549 (KRAS G12S) cells
# Assay: Cell-based pERK (pERK:tERK) in A549 cells
# Parameters: A549-pERK 10 uM, 2 h: unit not given here
# Conditions: 10 nM, 2 h; phospho- to total protein ratio normalized to DMSO control (Table 9)
# Description: Media components, reagents and buffers for Western Blot: All cell culture media components were obtained from ThermoFisher Scientific. […] Laemmli sample loading 4× buffer (ThermoFisher Scientific, Cat No. NP0007). MOPS/SDS electrophoresis running buffer (GenScript, Cat No. M00138).
# Subculture conditions: Adherent cells were grown to approximately 90% confluency, culture medium was aspirated and the cell layer was rinsed with PBS. […] Eight mL media was added, cells were spun down at 1000×g for 5 minutes. Cell pellet was re-suspended in 10 mL media and an appropriate volume was inoculated into a new culture flask.
# Compound (drug) treatment: Cells were plated in a 6-well plate at a density of 250,000-300,000 cells/well in 3 mL media and incubated 37° C. in a humidified, 5% CO2 incubator. […] These solutions were added to the cells (3 uL/well), mixed by swirling the plate, and incubated at 37° C. in a humidified, 5% CO2 incubator for 2 hours.
# Cell lysis and protein estimation: Cells were washed with PBS, and scraped in 50 μL of lysis buffer containing protease and phosphatase inhibitors. Cell lysates were stored at −20° C. Cell lysates were thawed and spun at 12,000 rpm for one minute, 3 ul of the supernatant was added to 500 μL of Coomassie blue reagent following by 500 μL of water. […] Protein standards were used (0-20 mg/mL) to calculate protein concentrations of test samples.
# All samples were heated at 95° C. for 5 minutes, cooled to room temperature and spun down. […] After the run, gel was removed and protein transfer was done using iBlot for 7 minutes, as per manufacturer's recommendations. After the transfer, nitrocellulose membrane was incubated on a shaker in 5 mL of blocking buffer at room temperature for 1 hr. The blot was then incubated overnight on a shaker in 5 ml of blocking buffer containing 0.2% Tween-20 and primary antibody, at room temperature. Anti-phospho-STAT3 antibody was used at a dilution of 1:500, the other 3 primary antibodies were used at a dilution of 1:1000.
# Next day, the blot was washed 3 times for 10 min each with 10 mL of TBST followed by incubation on a shaker in 5 ml of blocking buffer containing 0.2% Tween-20 and 0.5 ul of the IRDye labeled secondary antibodies, diluted 1:10000, at room temperature for 1 hr. The blot was then washed 3 times for 10 min each with 10 mL of TBST and dried between sheets of paper towels. Imaging was done using LICOR's Odyssey imaging system, quantitation was done using their software, Image Studio version 3.1.
# Materials and Methods: A549 or A375 cells were seeded in 6-well plates at an appropriate seeding density on day 0. On day 2 or 3, after checking the health and confluency of cells, the media was aspirated and replaced with 1 mL media containing a predetermined concentration of compound and incubated for 2 hours. After 2 hours, the media was aspirated, and the cells washed 2 times with cold PBS. Cells were lysed on ice, with 50 uL 1×CST lysis buffer +1 mM PMSF for 5 minutes. After 5 minutes, cells were removed using a scraper and transferred to cold 1.5 mL tubes, and centrifuged for 10 min, 4° C., 14,000×g. Supernatant was gently removed and snap frozen in liquid nitrogen. Protein concentration of the lysate was determined using Bradford Reagent (analyzed using SpectraMax M2E) and diluted to 1 mg/mL or pERK or 1.5 mg/mL for pMEK analysis. […] All dilutions were in Milk-free antibody diluent.
# They were grown in T75 flasks in DMEM containing 10% FBS and Pen-Strep. at 37° C. in a humidified, 5% CO2 incubator. The adherent cells were grown to about 90% confluency, culture medium was aspirated, and the cell layer was rinsed with PBS. […] Eight mL media was added, cells were spun down at 1000 g for 5 minutes. Cell pellet was re-suspended in 10 mL media and an appropriate volume was inoculated into a new culture flask. Cells were plated in a 6-well plate at a density of 250,000-300,000 cells/well in 3 mL media and incubated 37° C. in a humidified, 5% CO2 incubator.
row,SMILES,"A549-pERK (10 nM, 2 h)"
1,CNS(=O)(=O)Nc1cccc(Cc2c(CN3CCN(C)CC3)c3ccc(OC(=O)N(C)C)cc3oc2=O)c1F [Compound 15],73.8
2,CNS(=O)(=O)Nc1cccc(Cc2c(CN3CCN(Cc4ccccc4)CC3)c3ccc(OC(=O)N(C)C)cc3oc2=O)c1F [Compound 16],91.6
3,CNS(=O)(=O)Nc1cccc(Cc2c(CNCC3CC3)c3ccc(OC(=O)N(C)C)cc3oc2=O)c1F [Compound 26],94.2
4,CNS(=O)(=O)Nc1cccc(Cc2c(CNCc3ccncc3)c3ccc(OC(=O)N(C)C)cc3oc2=O)c1F [Compound 29],96
5,CNS(=O)(=O)Nc1cccc(Cc2c(CNc3ccccc3)c3ccc(OC(=O)N(C)C)cc3oc2=O)c1F [Compound 30],54.3
6,CNS(=O)(=O)Nc1cccc(Cc2c(CNc3ccn[nH]3)c3ccc(OC(=O)N(C)C)cc3oc2=O)c1F [Compound 31],66.7
7,CNS(=O)(=O)Nc1cccc(Cc2c(CNCc3ccco3)c3ccc(OC(=O)N(C)C)cc3oc2=O)c1F [Compound 56],92.9
8,CNS(=O)(=O)Nc1cccc(Cc2c(CNCC(=O)N(C)C)c3ccc(OC(=O)N(C)C)cc3oc2=O)c1F [Compound 57],106 and 119
9,CNS(=O)(=O)Nc1cccc(Cc2c(CNCCN(C)C)c3ccc(OC(=O)N(C)C)cc3oc2=O)c1F [Compound 58],98.7 and 108
10,CNS(=O)(=O)Nc1cccc(Cc2c(CNCc3cccc(C(F)(F)F)c3)c3ccc(OC(=O)N(C)C)cc3oc2=O)c1F [Compound 59],105
11,CNS(=O)(=O)Nc1cccc(Cc2c(CN3CCN(C(C)C)CC3)c3ccc(OC(=O)N(C)C)cc3oc2=O)c1F [Compound 62],73
12,CNS(=O)(=O)Nc1cccc(Cc2c(CNC(C)c3ccccc3)c3ccc(OC(=O)N(C)C)cc3oc2=O)c1F (centres unmarked) [Compound 63],88
13,CNS(=O)(=O)Nc1cccc(Cc2c(CN3CCN(C4CC4)CC3)c3ccc(OC(=O)N(C)C)cc3oc2=O)c1F [Compound 64],73
14,CNS(=O)(=O)Nc1cccc(Cc2c(CN3CCN(C(=O)c4ccccc4)CC3)c3ccc(OC(=O)N(C)C)cc3oc2=O)c1F [Compound 65],100
15,CNS(=O)(=O)Nc1cccc(Cc2c(CNCCC(F)(F)F)c3ccc(OC(=O)N(C)C)cc3oc2=O)c1F [Compound 66],104
16,CNS(=O)(=O)Nc1cccc(Cc2c(CN3CCN(S(C)(=O)=O)CC3)c3ccc(OC(=O)N(C)C)cc3oc2=O)c1F [Compound 68],68.9
17,CCN1CCN(Cc2c(Cc3cccc(NS(=O)(=O)NC)c3F)c(=O)oc3cc(OC(=O)N(C)C)ccc23)CC1=O [Compound 69],101
18,CNS(=O)(=O)Nc1cccc(Cc2c(CNCCCCO)c3ccc(OC(=O)N(C)C)cc3oc2=O)c1F [Compound 71],99.4
19,C#CCN(C)Cc1c(Cc2cccc(NS(=O)(=O)NC)c2F)c(=O)oc2cc(OC(=O)N(C)C)ccc12 [Compound 76],62.1
20,CNS(=O)(=O)Nc1cccc(Cc2c(CNc3ccn(C)n3)c3ccc(OC(=O)N(C)C)cc3oc2=O)c1F [Compound 89],83.7

row,SMILES,"A549-pERK (10 nM, 2 h)"
1,CNS(=O)(=O)Nc1cccc(Cc2c(CNc3cn[nH]c3)c3ccc(OC(=O)N(C)C)cc3oc2=O)c1F [Compound 92],93.8
2,CNS(=O)(=O)Nc1cccc(Cc2c(CNc3nccs3)c3ccc(OC(=O)N(C)C)cc3oc2=O)c1F [Compound 94],93.5
3,CNS(=O)(=O)Nc1cccc(Cc2c(CN(C)c3cccc(Cl)c3)c3ccc(OC(=O)N(C)C)cc3oc2=O)c1F [Compound 95],80.2
4,CNS(=O)(=O)Nc1cccc(Cc2c(CNc3ccnn3C)c3ccc(OC(=O)N(C)C)cc3oc2=O)c1F [Compound 96],102
5,CNS(=O)(=O)Nc1cccc(Cc2c(CN(C)c3ccccc3Cl)c3ccc(OC(=O)N(C)C)cc3oc2=O)c1F [Compound 99],98.9
6,CCN(CC)C(=O)Oc1ccc2c(CN(C)C)c(Cc3cccc(NS(=O)(=O)NC)c3F)c(=O)oc2c1 [Compound 126],91.4
7,CNS(=O)(=O)Nc1cccc(Cc2c(CN(C)C)c3ccc(OC(=O)N4CCN(C)CC4)cc3oc2=O)c1F [Compound 127],110
8,CNS(=O)(=O)Nc1cccc(Cc2c(CN(C)C)c3ccc(Oc4ncccn4)cc3oc2=O)c1F [Compound 129],92.2
9,CNS(=O)(=O)Nc1cccc(Cc2c(CNCC(=O)O)c3cc(Cl)c(OC(=O)N(C)C)cc3oc2=O)c1F [Compound 133],88.1
10,CNS(=O)(=O)Nc1cccc(Cc2c(CN3CC4CC3CN4)c3ccc(OC(=O)N(C)C)cc3oc2=O)c1F (centres unmarked) [Compound 138],96.9
11,CNS(=O)(=O)Nc1cccc(Cc2c(CN3CC(C)C3)c3ccc(OC(=O)N(C)C)cc3oc2=O)c1F [Compound 142],94.6
12,CNS(=O)(=O)Nc1cccc(Cc2c(CN3CC(C)(C)C3)c3ccc(OC(=O)N(C)C)cc3oc2=O)c1F [Compound 143],104
13,CNS(=O)(=O)Nc1cccc(Cc2c(CN3CC(Cl)C3)c3ccc(OC(=O)N(C)C)cc3oc2=O)c1F [Compound 145],104
14,CNS(=O)(=O)Nc1nccc(Cc2c(CN3CC(F)(F)C3)c3ccc(OC(=O)N(C)C)cc3oc2=O)c1F [Compound 149],69.1
15,CNS(=O)(=O)Nc1cccc(Cc2c(CN3CC4(COC4)C3)c3ccc(OC(=O)N(C)C)cc3oc2=O)c1F [Compound 152],70.5
16,CNS(=O)(=O)Nc1cccc(Cc2c(CN3CC(N(C)C)C3)c3ccc(OC(=O)N(C)C)cc3oc2=O)c1F [Compound 154],64
17,CN(C)C(=O)Oc1ccc2c(CN3CCC3)c(Cc3ccnc(NS(=O)(=O)C4CC4)c3F)c(=O)oc2c1 [Compound 155],84.9
18,CNS(=O)(=O)Nc1cccc(Cc2c(CN3CCC4(CN(C)C4)C3)c3ccc(OC(=O)N(C)C)cc3oc2=O)c1F [Compound 159],82.7
19,CNC1CN(Cc2c(Cc3cccc(NS(=O)(=O)NC)c3F)c(=O)oc3cc(OC(=O)N(C)C)ccc23)C1 [Compound 164],102
20,CNS(=O)(=O)Nc1cccc(Cc2c(CN3CC(N)C3)c3ccc(OC(=O)N(C)C)cc3oc2=O)c1F [Compound 165],104

# Same assay, conditions: 10 uM, 2 h; phospho- to total protein ratio normalized to DMSO control
row,SMILES,"A549-pERK 10 uM, 2 h"
1,CNS(=O)(=O)Nc1cccc(Cc2c(CNCC(=O)N(C)C)c3ccc(OC(=O)N(C)C)cc3oc2=O)c1F [Compound 57],7.33
2,CNS(=O)(=O)Nc1cccc(Cc2c(CNC(N)=O)c3ccc(OC(=O)N(C)C)cc3oc2=O)c1F [Compound 105],7.39
3,CNS(=O)(=O)Nc1cccc(Cc2c(CNC(=O)OCCO)c3ccc(OC(=O)N(C)C)cc3oc2=O)c1F [Compound 106],27.88
4,CNS(=O)(=O)Nc1cccc(Cc2c(CNCC(=O)O)c3cc(Cl)c(OC(=O)N(C)C)cc3oc2=O)c1F [Compound 133],23.41
